Five compounds from US20170239237A1, “PYRROLOQUINOLINE DERIVATIVES AS 5-HT6 ANTAGONISTS, PREPARATION METHOD AND USE THEREOF” (Uniwersytet Jagiellonski, priority 2013, published 2017) can be followed below.

Each structure is given as a SMILES string. Like-named read-outs stand apart in the source and are kept apart here.

Data set [1] has as its system Wistar rats. Kind of data set: Conflict drinking test (Vogel test) in Wistar rats. The data set is classed as in vivo, rat. The note with it: for Minimum effective dose, conflict drinking (Vogel test) in rats (potential anxiolytic properties): IP, 60 minutes before the test, Wistar rats. The protocol: (§1) For intraperitoneal (i.p.) administration: to the desired quantity of the solid compound in a glass beaker, required volume of sterile water for injection was added and swirled with glass bar until complete dissolution of the compound.
(§2) Animals. Male Wistar rats weighing 220-250 g were used in the test. […] All animals were kept in an environmentally controlled rooms (ambient temperature 22±2° C; relative humidity 50-60%; 12:12 light:dark cycle, lights on at 8:00). They were allowed to acclimatize with the environment for one week before commencement of the experiments. Standard laboratory food (Ssniff M-Z) and filtered water were freely available. The experiments were conducted in the light phase between 09.00 and 14.00 hours. 1 h before the start of the experiment, rats were transferred to the experimental room for acclimation.
Apparatus and procedure. […] Experimental chambers were connected to PC software by control chassis and electric shocks' generator. On the first day of the experiment, the rats were adapted to the test chambers for 10 min. […] Afterwards, they were allowed a 30-min free-drinking session in their home cages. […] Recording data started immediately after the first lick and every 20 licks rats were punished with an electric shock (0.5 mA, lasting 1 s). The impulses were released via the spout of the drinking bottles. If a rat was drinking when an impulse was released, it received a shock. The number of licks and the number of shocks received during a 5-min experimental session was recorded automatically.
(§3) Experimental design. The compounds were administered IP, 60 minutes before the test.
(§4) Drugs. The experimental compounds were dissolved in the distilled water. All compounds were administrated in the volume of 2 ml/kg.

Data set [2] has as its target D3 receptors (Homo sapiens, UniProt P35462). The data set is described as follows: biochemical. The note with it: read-out: % inhibition of control binding at 10^−6M, D3.
Procedure: (§5) Each compound was tested in duplicate at 10^-6 M concentration.
The target in data set [3] is dopamine D2L receptor (Homo sapiens, UniProt P14416). The data set is described as follows: Radioligand binding, D2 ([3H]-raclopride displacement).
Data set [4] has as its target T1, 5-HT1A receptor (Homo sapiens, UniProt P08908).
T1 sequence (P08908 1-422): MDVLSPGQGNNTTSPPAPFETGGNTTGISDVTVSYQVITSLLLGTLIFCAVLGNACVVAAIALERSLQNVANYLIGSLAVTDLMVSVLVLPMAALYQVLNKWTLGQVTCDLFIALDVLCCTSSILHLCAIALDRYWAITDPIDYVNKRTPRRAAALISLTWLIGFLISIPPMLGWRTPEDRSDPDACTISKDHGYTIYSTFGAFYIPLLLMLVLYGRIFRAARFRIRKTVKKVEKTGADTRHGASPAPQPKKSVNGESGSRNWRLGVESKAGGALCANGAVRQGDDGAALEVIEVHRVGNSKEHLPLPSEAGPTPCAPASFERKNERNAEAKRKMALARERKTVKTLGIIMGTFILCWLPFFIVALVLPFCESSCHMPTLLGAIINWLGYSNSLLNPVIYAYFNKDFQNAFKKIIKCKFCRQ
The data set is described as follows: Radioligand binding, 5-HT1A ([3H]-8-OH-DPAT displacement).

Data set [5] concerns the target 5-HT7 receptor (Homo sapiens, UniProt P34969). The data set is described as follows: Radioligand binding, 5-HT7 ([3H]-5-CT displacement).
Data set [6] has as its target T2, 5-HT2C receptors (Homo sapiens, UniProt P28335).
T2 sequence (P28335 33-458): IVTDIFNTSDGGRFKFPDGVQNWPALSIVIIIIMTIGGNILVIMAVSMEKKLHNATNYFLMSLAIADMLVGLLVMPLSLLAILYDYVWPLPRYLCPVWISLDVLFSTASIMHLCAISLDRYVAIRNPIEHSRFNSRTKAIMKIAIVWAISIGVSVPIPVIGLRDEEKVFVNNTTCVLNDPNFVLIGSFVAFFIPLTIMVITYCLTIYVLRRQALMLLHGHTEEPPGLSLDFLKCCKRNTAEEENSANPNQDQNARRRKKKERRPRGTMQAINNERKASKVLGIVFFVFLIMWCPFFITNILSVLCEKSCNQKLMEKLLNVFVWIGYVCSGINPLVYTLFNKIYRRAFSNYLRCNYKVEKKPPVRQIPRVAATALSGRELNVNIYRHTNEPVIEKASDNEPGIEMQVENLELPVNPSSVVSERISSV
The data set is described as follows: biochemical. The note with it: read-out: % inhibition of control binding at 10^−6M, 5-HT2C.
Procedure: as §5

Data set [7] has as its system Wistar rats. The data set is described as follows: Forced swim test (FST) in Wistar rats. The data set is classed as in vivo, rat. Conditions: for Minimum effective dose, forced swim test in rats (potential antidepressant properties): IP, 60 minutes before the test, Wistar rats. The protocol:
as §1, §2
Apparatus and procedure. […] On the first day of experiment, the animals were gently individually placed in Plexiglas cylinders (40 cm high, 18 cm in diameter) containing 15 cm of water maintained at 25° C. for 15 min. Upon removal from water, the rats were placed in a Plexiglas box for 30 min under a 60-W bulb to dry off. On the following day, the rats were placed again in the cylinder and the total duration of immobility was recorded throughout the 5-min test period. Fresh water was used for each animal.
as §3, §4

Data set [8] addresses T3, M1 receptors (Homo sapiens, UniProt P11229).
T3 sequence (P11229 1-460): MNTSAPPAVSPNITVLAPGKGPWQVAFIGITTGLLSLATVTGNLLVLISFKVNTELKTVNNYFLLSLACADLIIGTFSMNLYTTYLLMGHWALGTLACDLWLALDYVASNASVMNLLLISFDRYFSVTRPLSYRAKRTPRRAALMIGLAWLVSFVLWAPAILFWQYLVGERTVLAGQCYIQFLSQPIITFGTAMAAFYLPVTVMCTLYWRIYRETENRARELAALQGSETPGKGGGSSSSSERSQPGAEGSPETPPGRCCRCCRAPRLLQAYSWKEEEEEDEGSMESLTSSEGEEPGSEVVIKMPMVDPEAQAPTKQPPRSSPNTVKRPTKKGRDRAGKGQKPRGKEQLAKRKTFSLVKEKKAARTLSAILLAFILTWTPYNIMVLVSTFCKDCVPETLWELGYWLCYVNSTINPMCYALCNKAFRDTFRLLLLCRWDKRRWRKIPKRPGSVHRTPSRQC
The data set is described as follows: biochemical. The note with it: read-out: % inhibition of control binding at 10^−6M, M1.
Procedure: as §5

Data set [9] concerns the target H1 receptors (Homo sapiens, UniProt P35367). The data set is described as follows: biochemical. Conditions: read-out: % inhibition of control binding at 10^−6M, H1.
Procedure: as §5
Data set [10] relates to Sprague-Dawley rats. Kind of data set: Novel object recognition (NOR) test in Sprague-Dawley rats, PCP-induced deficit. The data set is classed as in vivo, rat.
Procedure: Rats were allowed to acclimatize for at least 7 days before the start of the experimental procedure. During this week animals were handled for at least 3 times. Behavioral testing was carried out during the light phase of the light/dark cycle. At least 1 h before the start of the experiment, rats were transferred to the experimental room for acclimation.
Apparatus and procedure. Rats were tested in a dimly lit (25 lx) “open field” apparatus made of a dull gray plastic (66×56×30 cm). After each measurement, the floor was cleaned and dried.
The procedure lasting for 2 days consisted of the habituation to the test arena (without any objects) for 5 min. The test session comprising of two trials separated by an inter-trial interval (ITI) of 1 h was carried out on the next day. […]
Exploration time of the objects and the distance traveled were measured using the Any-maze® video tracking system. Based on exploration time (E) of two objects during T2, discrimination index (DI) was calculated according to the formula: […]

Sequence of dopamine D2L receptor (P14416 whole entry): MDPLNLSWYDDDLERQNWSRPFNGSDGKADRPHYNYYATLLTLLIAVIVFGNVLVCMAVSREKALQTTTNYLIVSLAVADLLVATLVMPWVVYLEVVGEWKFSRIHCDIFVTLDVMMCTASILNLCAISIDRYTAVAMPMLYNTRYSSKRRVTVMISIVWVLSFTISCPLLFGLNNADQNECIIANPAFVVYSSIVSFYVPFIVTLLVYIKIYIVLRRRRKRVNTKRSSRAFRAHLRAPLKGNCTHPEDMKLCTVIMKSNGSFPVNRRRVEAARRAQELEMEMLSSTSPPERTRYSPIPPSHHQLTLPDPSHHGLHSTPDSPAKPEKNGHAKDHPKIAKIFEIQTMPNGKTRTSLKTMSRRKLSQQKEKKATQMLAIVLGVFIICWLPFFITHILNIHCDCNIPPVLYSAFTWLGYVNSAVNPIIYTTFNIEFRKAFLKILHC
Sequence of D3 receptors (P35462 whole entry): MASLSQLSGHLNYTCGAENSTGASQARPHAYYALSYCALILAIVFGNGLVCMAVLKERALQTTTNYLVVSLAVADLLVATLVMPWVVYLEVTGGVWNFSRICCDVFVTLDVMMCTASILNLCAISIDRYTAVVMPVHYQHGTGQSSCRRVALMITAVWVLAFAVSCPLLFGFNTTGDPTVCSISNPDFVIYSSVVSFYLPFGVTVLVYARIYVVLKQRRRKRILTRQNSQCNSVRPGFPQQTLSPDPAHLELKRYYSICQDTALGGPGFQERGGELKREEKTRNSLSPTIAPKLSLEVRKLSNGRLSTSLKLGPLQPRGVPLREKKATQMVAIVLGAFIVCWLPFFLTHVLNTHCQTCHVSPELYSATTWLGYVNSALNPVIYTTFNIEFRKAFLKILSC
Sequence of 5-HT7 receptor (P34969 1-432 limits assumed): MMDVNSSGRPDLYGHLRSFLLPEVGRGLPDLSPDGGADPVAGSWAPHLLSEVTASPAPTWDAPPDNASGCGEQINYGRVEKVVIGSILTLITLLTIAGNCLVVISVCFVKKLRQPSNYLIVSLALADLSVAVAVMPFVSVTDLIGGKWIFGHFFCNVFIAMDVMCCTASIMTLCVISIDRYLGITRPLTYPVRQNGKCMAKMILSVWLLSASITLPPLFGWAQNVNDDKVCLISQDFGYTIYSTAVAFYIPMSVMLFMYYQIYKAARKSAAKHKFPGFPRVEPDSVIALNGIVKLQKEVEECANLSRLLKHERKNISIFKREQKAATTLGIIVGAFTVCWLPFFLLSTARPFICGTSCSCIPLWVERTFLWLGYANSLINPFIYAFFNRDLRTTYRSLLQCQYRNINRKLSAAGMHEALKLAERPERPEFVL
Sequence of H1 receptors (P35367 whole entry): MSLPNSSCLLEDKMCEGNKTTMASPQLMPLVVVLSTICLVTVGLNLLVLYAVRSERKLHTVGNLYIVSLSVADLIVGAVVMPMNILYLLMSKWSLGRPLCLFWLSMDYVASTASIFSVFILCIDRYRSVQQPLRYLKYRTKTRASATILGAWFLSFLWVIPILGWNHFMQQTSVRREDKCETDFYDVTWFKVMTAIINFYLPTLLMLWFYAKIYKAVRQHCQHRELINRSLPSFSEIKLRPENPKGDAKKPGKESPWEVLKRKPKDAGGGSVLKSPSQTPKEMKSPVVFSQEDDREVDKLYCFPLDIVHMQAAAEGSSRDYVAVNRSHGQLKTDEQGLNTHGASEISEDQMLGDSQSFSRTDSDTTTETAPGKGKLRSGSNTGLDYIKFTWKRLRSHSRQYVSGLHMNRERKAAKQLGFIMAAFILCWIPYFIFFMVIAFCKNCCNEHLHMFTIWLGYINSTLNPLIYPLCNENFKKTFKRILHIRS

The inhibition is the change of the read-out against control, counted positive when it falls. What is called Ki is a measure of affinity in units of concentration, obtained from inhibition or displacement. As for `O=S(=O)(c1cccc(Cl)c1)n1ccc2c(N[C@H]3CCNC3)nc3ccccc3c21` [Compound 6, (S)-1-((3-chlorophenyl)sulfonyl)-N-(pyrrolidin-3-yl)-1H-pyrrolo[3,2-c]quinolin-4-amine], in [1], the “Minimum effective dose, conflict drinking (Vogel test) in rats (potential anxiolytic properties)” value was 3 mg/kg. For the same compound, the results for the inhibition at 1 µM in [2], in [6] and in data set [8] were 69%, 21% and 9%, respectively. Besides, the Ki in data set [3] is 1010 nM; in data set [4] it was 2350 nM; in [5], 4990 nM. Further, the “Minimum effective dose, forced swim test in rats (potential antidepressant properties)” value (“Minimum effective dose, forced swim test” below) in data set [7] is 10 mg/kg.

Regarding `O=S(=O)(c1cccc(Cl)c1)n1ccc2c(N[C@@H]3CCNC3)nc3ccccc3c21` [Compound 7, (R)-1-((3-chlorophenyl)sulfonyl)-N-(pyrrolidin-3-yl)-1H-pyrrolo[3,2-c]quinolin-4-amine], in data set [1], the “Minimum effective dose, conflict drinking (Vogel test) in rats (potential anxiolytic properties)” value is on record as 10 mg/kg. The inhibition at 1 µM is 82% in [2], 2% in [6], 17% in data set [9] and -1% in [8]. Also, the results for the Ki in data set [3], in [4] and in [5] were 754 nM, 2680 nM and 3940 nM, respectively. Moreover, the “Minimum effective dose, forced swim test” value in data set [7] is reported as 3 mg/kg.

What is called melting point is the temperature of the solid-liquid transition. Turning to `O=S(=O)(c1cccc(Cl)c1)n1ccc2c(N3CCNCC3)nc3ccccc3c21` [Compound 29, 1-((3-chlorophenyl)sulfonyl)-4-(piperazin-1-yl)-1H-pyrrolo[3,2-c]quinoline], the melting point was in the range of 161 to 163 °C. Besides, in data set [1], the “Minimum effective dose, conflict drinking (Vogel test) in rats (potential anxiolytic properties)” value was 10 mg/kg. Also, the inhibition at 1 µM in [2] stood at 66%. In addition, in data set [3] (read-out: Ki D2, cloned human receptor in HEK293, three independent experiments, SEM ± 22%), the Ki is 1340 nM. Besides, the Ki in data set [4] (read-out: Ki 5-HT1A, cloned human receptor in HEK293, three independent experiments, SEM ± 22%) stood at 773 nM. In addition, the Ki in data set [5] (read-out: Ki 5-HT7) was determined as 1790 nM. In addition, in data set [6], the inhibition at 1 µM worked out at 13%. Moreover, the “Minimum effective dose, forced swim test” value in data set [7] is greater than 10 mg/kg. The inhibition at 1 µM in data set [8] was -11%.

Compound `O=S(=O)(c1cccc2ccccc12)n1ccc2c(N3CCNCC3)nc3ccccc3c21` [Compound 43, 1-(naphthalen-1-ylsulfonyl)-4-(piperazin-1-yl)-1H-pyrrolo[3,2-c]quinoline] had a melting point of 158 to 160 °C. The same compound registered a Ki in data set [3] of 4010 nM. The Ki in [4] amounted to 711 nM. In [5], the affinity, expressed as Ki, was 1990 nM.

As for `COc1ccc(NS(=O)(=O)c2sc3ccc(Cl)cc3c2C)cc1N1CCNCC1` [SB-271046, reference compound], in [1] (rats), the “active dose in the conflict drinking test (Vogel test), increasing number of licks and shocks received” value is no more than 10 mg/kg. Besides, in data set [10], the “dose effective against PCP-induced cognitive deficit in NOR test” value came to 1 mg/kg. The “effective dose in the forced swim test (reference compounds)” value in data set [7] (rats, antidepressant-like activity, imipramine increased climbing time) was determined as 10 mg/kg.
